What was measured:
Experiment in all cases: relative viability (nuclei count vs DMSO), 5 days (fraction); higher = more cells survive
[1] = compound: C1CC1C(=O)NC2=NNC3=C2C=CC(=C3)C4=CC(=CC=C4)C(=O)NC5CC5 [XMD13-2] + CC1(C)CCC(c2ccc(Cl)cc2)=C(CN2CCN(c3ccc(C(=O)NS(=O)(=O)c4ccc(N[C@H](CCN5CCOCC5)CSc5ccccc5)c(S(=O)(=O)C(F)(F)F)c4)cc3)CC2)C1 [Navitoclax] (partner 0.5 µM)
Method in brief: (§1)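 One day after seeding in 1536-well plates, lung cancer cell lines were dosed by pin tool. Dosing was either single-drug or a fixed anchor-drug dose plus five library-drug doses (not always all listed) in √10 steps. After 5 days, nuclei were stained in one fix-and-stain step and counted on 4× images, and relative viability is the nuclei count of treated wells over that of vehicle wells, given as the median of duplicate plates.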

[2] = compound: C1CC1C(=O)NC2=NNC3=C2C=CC(=C3)C4=CC(=CC=C4)C(=O)NC5CC5 [XMD13-2] + COc1cc2c(Oc3ccc(NC(=O)C4(C(=O)Nc5ccc(F)cc5)CC4)cc3F)ccnc2cc1OCCCN1CCOCC1 [Foretinib] (partner 0.25 µM)
Method in brief: as §1

[3] = compound: C1CC1C(=O)NC2=NNC3=C2C=CC(=C3)C4=CC(=CC=C4)C(=O)NC5CC5 [XMD13-2] + C[C@@H](Oc1cc(-c2cnn(C3CCNCC3)c2)cnc1N)c1c(Cl)ccc(F)c1Cl [Crizotinib] (partner 1 µM)
Method in brief: as §1

[4] = compound: Cc1ccc(C(=O)Nc2cccc(C(F)(F)F)c2)cc1Nc1cncc(C(N)=O)c1 [ALW-II-49-7] + CC(=O)Nc1cccc(-n2c(=O)n(C3CC3)c(=O)c3c(Nc4ccc(I)cc4F)n(C)c(=O)c(C)c32)c1 [Trametinib] (partner 0.02 µM)
Method in brief: as §1

Row | Cell Line | relative viability ([1]; first compound 0.05 µM) | relative viability ([1]; first compound 0.1581 µM) | relative viability ([1]; first compound 0.5 µM) | relative viability ([1]; first compound 1.581 µM) | relative viability ([1]; first compound 5 µM) | relative viability ([2]; first compound 0.05 µM) | relative viability ([2]; first compound 0.1581 µM) | relative viability ([2]; first compound 0.5 µM) | relative viability ([2]; first compound 1.581 µM) | relative viability ([2]; first compound 5 µM) | relative viability ([3]; first compound 0.05 µM) | relative viability ([3]; first compound 0.1581 µM) | relative viability ([3]; first compound 0.5 µM) | relative viability ([3]; first compound 1.581 µM) | relative viability ([3]; first compound 5 µM) | relative viability ([4]; first compound 0.08 µM) | relative viability ([4]; first compound 0.253 µM) | relative viability ([4]; first compound 0.8 µM) | relative viability ([4]; first compound 2.53 µM) | relative viability ([4]; first compound 8 µM)
1 | NCI-H1437 | 1.12 | 1.09 | 1.09 | 1.05 | 1.09 | 1.2 | 1.25 | 1.25 | 1.24 | 1.27 | 0.874 | 1.02 | 0.902 | 0.886 | 1.07 | 0.486 | 0.573 | 0.332 | 0.512 | 0.509
2 | NCI-H1650 | 1.07 | 1.05 | 0.993 | 1.33 | 1.52 | 1.36 | 1.07 | 1.15 | 0.967 | 1.81 | 1.31 | 0.861 | 1.02 | 0.989 | 1.16 | 0.438 | 0.688 | 0.557 | 0.666 | 0.78
3 | NCI-H1651 | 1.28 | 1.04 | 1 | 1.2 | 0.947 | 0.866 | 0.808 | 0.799 | 0.744 | 0.827 | 0.946 | 0.811 | 0.886 | 0.898 | 0.863 | 0.839 | 0.772 | 0.824 | 0.781 | 0.808
4 | NCI-H1666 | 0.886 | 1.03 | 0.881 | 0.905 | 0.92 | 1.12 | 0.998 | 0.913 | 0.926 | 0.982 | 0.832 | 0.989 | 1.09 | 0.971 | 0.855 | 0.864 | 0.927 | 0.865 | 0.948 | 0.803
5 | NCI-H1734 | 1 | 0.883 | 0.881 | 0.8 | 0.741 | 1.05 | 0.843 | 0.864 | 0.8 | 0.658 | 0.91 | 0.655 | 0.66 | 0.594 | 0.474 | 0.641 | 0.749 | 0.668 | 0.622 | 0.593
6 | NCI-H1755 | 1.03 | 0.985 | 1.07 | 1.01 | 0.986 | 1.04 | 0.871 | 0.939 | 0.86 | 0.937 | 0.982 | 0.85 | 0.861 | 0.856 | 0.922 | 0.724 | 0.879 | 0.786 | 0.747 | 0.681
7 | NCI-H1915 | 0.801 | 0.781 | 0.806 | 0.835 | 0.853 | 1.12 | 1.08 | 1.12 | 1.11 | 1.21 | 0.966 | 0.931 | 0.902 | 0.967 | 0.941 | 0.305 | 0.383 | 0.334 | 0.251 | 0.262
8 | NCI-H1944 | 1.08 | 1.05 | 1.08 | 1.11 | 1.17 | 0.898 | 0.886 | 0.935 | 1.04 | 0.946 | 1.42 | 1.11 | 1.14 | 1.35 | 1.09 | 0.405 | 0.427 | 0.418 | 0.339 | 0.405
9 | NCI-H1975 | 1.17 | 1.28 | 1.01 | 1.02 | 1.18 | 1.06 | 0.939 | 0.96 | 0.978 | 0.982 | 1.21 | 1.02 | 0.91 | 0.954 | 1.14 | 0.384 | 0.581 | 0.288 | 0.367 | 0.311
10 | NCI-H1993 | 0.911 | 0.834 | 0.884 | 0.845 | 0.673 | 0.838 | 0.689 | 0.775 | 0.785 | 0.507 | 0.913 | 0.844 | 0.935 | 0.768 | 0.69 | 0.583 | 0.481 | 0.648 | 0.608 | 0.445
11 | NCI-H2009 | 1.22 | 1.15 | 1.22 | 1.14 | 1.21 | 1.3 | 1.2 | 1.2 | 1.17 | 1.3 | 1.09 | 1.03 | 1.05 | 1 | 1.12 | 0.247 | 0.32 | 0.299 | 0.341 | 0.266
12 | NCI-H2023 | 1.01 | 1.03 | 0.893 | 0.968 | 1 | 0.82 | 0.825 | 0.791 | 0.798 | 0.864 | 0.738 | 0.592 | 0.62 | 0.556 | 0.809 | 0.468 | 0.557 | 0.69 | 0.503 | 0.53
13 | NCI-H2085 | 1.25 | 1.14 | 1.16 | 1.18 | 1.1 | 0.971 | 0.943 | 0.963 | 0.857 | 0.923 | 1.09 | 0.901 | 0.877 | 0.736 | 0.826 | 0.534 | 0.512 | 0.477 | 0.562 | 0.518

Reference: the supplement of paper PMC10307832
